The text below walks through data of PMC6522510 (Nature Communications, 2019).

Read-outs that look alike come from different tables or passages of the source.

The test system of test [1] is ML2. The test can be described thus: Secondary dose-response HTS, Cell Titer Glo. Type of test: cell-based, human. Conditions: secondary high-throughput screen, ML-2; for EC50: read-out: average effective concentration, ML-2.
The test system of test [2] is M07e. The test is described as follows: Secondary dose-response HTS, Cell Titer Glo. Type of test: cell-based, human. Conditions: secondary high-throughput screen; for EC50: read-out: average effective concentration, M07e.
Test [3] deals with CMK. The test can be described thus: Secondary dose-response HTS, Cell Titer Glo. Format: cell-based, human. Conditions: CMK; for EC50: read-out: average effective concentration, CMK. A general note: Cellular ATP, detected with luciferase, serves as a proxy for viable cell number.
The test system of test [4] is MV4-11. The test can be described thus: cells. More on the design: species or system AML cell lines (8); Secondary HTS, 10-point dose-response in triplicate, Cell Titer Glo viability, four-parameter fit EC50. Particulars: Homo sapiens, MV4-11, 72 h, read-out: MV4-11.
Test [5] concerns CMS. The test can be described thus: cells. More on the design: species or system AML cell lines (8); Secondary HTS, 10-point dose-response in triplicate, Cell Titer Glo viability, four-parameter fit EC50. Conditions: 72 h, read-out: CMS.
Test [6] has as its system MOLM-13. The test can be described thus: cells. The arrangement: species or system AML cell lines (8); Secondary HTS, 10-point dose-response in triplicate, Cell Titer Glo viability, four-parameter fit EC50. Conditions: Homo sapiens, MOLM-13, 72 h, read-out: MOLM-13.
The test system of test [7] is U937. The test can be described thus: Secondary dose-response HTS, Cell Titer Glo. Type of test: cell-based, human. Conditions: secondary high-throughput screen, U937; for EC50: read-out: average effective concentration, U937.
Test [8] deals with CHRF288-11. The test is described as follows: Secondary dose-response HTS, Cell Titer Glo. Conditions: secondary high-throughput screen, CHRF288-11; for EC50: Homo sapiens, HTS, read-out: average effective concentration, CHRF288-11. Format: cell-based, human.
Test [9] deals with MV4-11. The test is described as follows: Secondary dose-response HTS, Cell Titer Glo. Type of test: cell-based, human. Conditions: secondary high-throughput screen, MV4-11; for EC50: read-out: average effective concentration, MV4-11.
Test [10] concerns MOLM-13. The test is described as follows: Secondary dose-response HTS, Cell Titer Glo. Type of test: cell-based, human. Conditions: secondary high-throughput screen, MOLM-13; for EC50: read-out: average effective concentration, MOLM-13.
In test [11] the test system is U937. The test is described as follows: cells. More on the design: species or system AML cell lines (8); Secondary HTS, 10-point dose-response in triplicate, Cell Titer Glo viability, four-parameter fit EC50. Conditions: Homo sapiens, U-937, 72 h, read-out: U937.
For test [12], the system named is CMK. The test can be described thus: cells. More on the design: species or system AML cell lines (8); Secondary HTS, 10-point dose-response in triplicate, Cell Titer Glo viability, four-parameter fit EC50. Conditions: Homo sapiens, CMK, 72 h, read-out: CMK.
The subject of test [13] is CMS. The test can be described thus: Secondary dose-response HTS, Cell Titer Glo. Format: cell-based, human. Conditions: secondary high-throughput screen, CMS; for EC50: read-out: average effective concentration, CMS.
The subject of test [14] is CHRF288-11. The test is described as follows: cells. The arrangement: species or system AML cell lines (8); Secondary HTS, 10-point dose-response in triplicate, Cell Titer Glo viability, four-parameter fit EC50. Conditions: 72 h, read-out: CHRF288-11.
Where [15] appears, read: Homo sapiens, secondary high-throughput screen.
Where [16] appears, read: secondary high-throughput screen.

Regarding `Cn1ncnc1[C@H]1c2n[nH]c(=O)c3cc(F)cc(c23)N[C@@H]1c1ccc(F)cc1` [BMN 673], the EC50 in [1] (Homo sapiens) was 0.079 µM; in test [2] (Homo sapiens, M-07e, M07e) it was 9.2 µM; in test [3] (setting [15]) it was 0.21 µM; in test [4] it was > 10 µM; in test [5] it was > 10 µM; in test [6], > 10 µM. Moreover, the EC50 in test [7] (Homo sapiens, U-937) was found to be 3.6 µM; in [8], 0.074 µM.

Turning to `COc1cc(Nc2c(C#N)cnc3cc(OCCCN4CCN(C)CC4)c(OC)cc23)c(Cl)cc1Cl` [BOSUTINIB], the EC50 was 10 µM in [1] (Homo sapiens); 3.8 µM in [9] (Homo sapiens); 4.8 µM in test [2] (Homo sapiens, M-07e, M07e); 1.1 µM in test [3] (Homo sapiens); > 10 µM in test [5]; 3.8 µM in test [7] (Homo sapiens, U-937). The EC50 is 2.7 µM in test [10] (Homo sapiens) and 3.8 µM in [8].

Turning to `O=C(/C=C/c1cccnc1)NCCCCC1CCN(C(=O)c2ccccc2)CC1` [DAPORINAD], the EC50 was 0.001 µM in test [1] (Homo sapiens); 0.001 µM in test [9] (Homo sapiens); 0.001 µM in test [2] (Homo sapiens, M-07e, M07e); 0.001 µM in test [3] (setting [15]); > 10 µM in [5]; 0.001 µM in [7] (Homo sapiens, U-937). Moreover, the EC50 in test [10] (Homo sapiens) came to 0.001 µM; in test [8], 0.012 µM.

As to `C=C(C)[C@@H](CC=C(C)C)C[C@@]12C[C@@H](CC=C(C)C)C(C)(C)[C@@](CC=C(C)C)(C(=O)C(C(=O)c3ccc(O)c(O)c3)=C1O)C2=O` [GARCINOL], the EC50 in test [1] (Homo sapiens) is 5.4 µM; in [2] (Homo sapiens, M-07e, […]), > 10 µM; in test [11], > 10 µM; in test [4], > 10 µM; in test [5], > 10 µM; in test [12] it was > 10 µM. Besides, the figures for the EC50 in test [10] (Homo sapiens) and in [8] were 5.1 µM and 5.8 µM, respectively.

With `COC1=C2C[C@@H](C)C[C@H](OC)[C@H](O)[C@@H](C)/C=C(\C)[C@H](OC(N)=O)[C@@H](OC)/C=C\C=C(/C)C(=O)NC(=CC1=O)C2=O` [GELDANOMYCIN], in test [2] (M07e), the “average effective concentration, M07e” value was “Inactive”. In addition, in test [3] (setting [16]), the “average effective concentration, CMK” value was “Inactive”. The “average effective concentration, CMS” value in test [13] was “Inactive”. In addition, the “average effective concentration, CHRF288-11” value in [8] is “Inactive”.

With `COC(=O)[C@H](CC(C)C)NC(=O)c1ccc(NC[C@@H](N)CS)cc1-c1cccc2ccccc12` [GGTI 298], the “average effective concentration, ML-2” value in test [1] is listed as “Inactive”. Besides, in [2] (M07e), the “average effective concentration, M07e” value was “Inactive”. The “average effective concentration, CMK” value in [3] (setting [16]) was “Inactive”. In [13], the “average effective concentration, CMS” value is “Inactive”. Also, the “average effective concentration, CHRF288-11” value in [8] is given as “Inactive”.

Regarding `N#CN=C(NCCCCCCOc1ccc(Cl)cc1)Nc1ccncc1` [GMX-1778], the EC50 in [1] (Homo sapiens) was 0.00035 µM; in test [9] (Homo sapiens) it was 0.0011 µM; in test [2] (Homo sapiens, M-07e, […]), 0.00052 µM; in [3] (setting [15]), 0.0056 µM; in [5], > 10 µM; in test [7] (Homo sapiens, U-937) it was 0.005 µM. Besides, the EC50 in test [10] (Homo sapiens) is 0.0036 µM; in test [8] it was 0.00048 µM.

Take `CCc1c2c(nc3ccc(OC(=O)N4CCC(N5CCCCC5)CC4)cc13)-c1cc3c(c(=O)n1C2)COC(=O)[C@]3(O)CC` [IRINOTECAN]: the EC50 in test [1] (Homo sapiens) is 4 µM; in [9] (Homo sapiens), 3.1 µM; in [2] (Homo sapiens, M-07e, M07e) it was > 10 µM; in test [5] it was > 10 µM; in [12], > 10 µM; in [7] (Homo sapiens, U-937) it was 10 µM. The EC50 in test [10] (Homo sapiens) is 2.5 µM; in test [8], 4.5 µM.

`CCc1c(O)cc(O)c(C(=O)c2ccc(OCCN3CCOCC3)c(OC)c2)c1CC(=O)N(CCOC)CCOC.Cl` [KW-2478]: the “average effective concentration, M07e” value in test [2] (M07e) is reported as “Inactive”. For the same molecule, the “average effective concentration, CMS” value in [13] is recorded as “Inactive”. Further, the “average effective concentration, U937” value in [7] is on record as “Inactive”.

On to `Cc1ccc(F)c(NC(=O)Nc2ccc(-c3cccc4[nH]nc(N)c34)cc2)c1` [LINIFANIB], for which the EC50 in test [1] (Homo sapiens) was > 10 µM; in test [9] (Homo sapiens), 0.003 µM; in test [2] (Homo sapiens, M-07e, M07e), > 10 µM; in test [3] (Homo sapiens), 5.8 µM; in test [5], > 10 µM; in [14] it was > 10 µM. For the same molecule, the EC50 was determined as 6 µM in test [7] (Homo sapiens, U-937) and 0.007 µM in test [10] (Homo sapiens).

As for `COc1c(C)c2c(c(O)c1C/C=C(\C)CCC(=O)OCCN1CCOCC1)C(=O)OC2` [MYCOPHENOLATE MOFETIL], the EC50 is 1.3 µM in test [1] (Homo sapiens); 1.9 µM in [9] (Homo sapiens); > 10 µM in test [2] (Homo sapiens, M-07e, M07e); 7.5 µM in test [3] (Homo sapiens); > 10 µM in [5]; 3 µM in [7] (Homo sapiens, U-937). Also, the EC50 in [10] (Homo sapiens) is 1.5 µM; in test [8], 2.9 µM.

Take `Oc1cccc(-c2nc(N3CCOCC3)c3oc4ncccc4c3n2)c1` [PIK 103]: in [1], the “average effective concentration, ML-2” value is recorded as “Inactive”. Moreover, the “average effective concentration, M07e” value in test [2] (M07e) is on record as “Inactive”. In test [13], the “average effective concentration, CMS” value is listed as “Inactive”. Also, the “average effective concentration, CHRF288-11” value in [8] is recorded as “Inactive”.

As for `O=C(CCCCCCC(=O)Nc1cccnc1)NO` [PYROXAMIDE], the EC50 in test [1] (Homo sapiens) is > 10 µM; in [9] (Homo sapiens), 1.6 µM; in [2] (Homo sapiens, M-07e, M07e), 8.2 µM; in [5], > 10 µM; in [14], > 10 µM; in [12], > 10 µM. Besides, the EC50 in test [7] (Homo sapiens, U-937) is 5.8 µM; in [10] (Homo sapiens), 6 µM.

With `C[S+]([O-])CCCCN=C=S` (centres unmarked) [SULFORAPHANE], the EC50 is > 10 µM in [1] (Homo sapiens); > 10 µM in test [2] (Homo sapiens, M-07e, M07e); > 10 µM in test [13] (Homo sapiens, HTS); > 10 µM in test [7] (Homo sapiens, U-937); > 10 µM in test [8].

In the case of `Cc1cc(C(C)Nc2ccccc2)c2nc(N3CCOCC3)cc(=O)n2c1` (centres unmarked) [TGX-221], in test [1], the “average effective concentration, ML-2” value is “Inactive”. In addition, in test [2] (M07e), the “average effective concentration, M07e” value is “Inactive”. The “average effective concentration, CMS” value in test [13] was “Inactive”. In test [7], the “average effective concentration, U937” value is “Inactive”. Also, the “average effective concentration, CHRF288-11” value in test [8] is on record as “Inactive”.

On to `O=c1[nH]c2sccc2c2ccccc12` [TIQ-A], for which the “average effective concentration, ML-2” value in [1] was “Inactive”. The results for the EC50 in [9], in [2] (M07e) and in [10] were 3.5 µM, 7 µM and 4.2 µM, respectively. Further, in test [3] (setting [16]), the “average effective concentration, CMK” value is given as “Inactive”. Further, the “average effective concentration, U937” value in [7] was “Inactive”. Besides, in [8], the “average effective concentration, CHRF288-11” value is recorded as “Inactive”.

On to `O=C(CCCCCCC(=O)Nc1ccc([C@H]2O[C@@H](CSc3nc(-c4ccccc4)c(-c4ccccc4)o3)C[C@@H](c3ccc(CO)cc3)O2)cc1)NO` [TUBACIN], for which the EC50 in [1] (Homo sapiens) is > 10 µM; in [2] (Homo sapiens, M-07e, […]) it was 2.5 µM; in [11], > 10 µM; in test [4], > 10 µM; in test [5], > 10 µM; in test [12], > 10 µM. The EC50 in [10] (Homo sapiens) and in test [8] was > 10 µM in each case.

Regarding `N#Cc1ccc(COC[C@H]2O[C@@H](n3c(NCc4ccc(Cl)c(Cl)c4)nc4c(N)ncnc43)[C@H](O)[C@@H]2O)cc1` [VER-155008], the “average effective concentration, ML-2” value in [1] was “Inactive”. For the same molecule, the “average effective concentration, MV4-11” value in test [9] is reported as “Inactive”. Moreover, the “average effective concentration, M07e” value in test [2] (M07e) is “Inactive”. Further, the “average effective concentration, CMK” value in test [3] (setting [16]) is “Inactive”. In test [7], the “average effective concentration, U937” value is on record as “Inactive”. Moreover, the “average effective concentration, MOLM-13” value in test [10] is “Inactive”. In [8], the “average effective concentration, CHRF288-11” value is listed as “Inactive”.

EVODIAMINE: the EC50 amounted to 0.45 µM in test [1]; 4.4 µM in [2] ([…]); 0.3 µM in test [3] (setting [16]); 1.5 µM in [13]; 2.1 µM in test [7].
